Measured values as given in PMC8949187, “Study of Structure–Activity Relationships of the Marine Alkaloid Fascaplysin and Its Derivatives as Potent Anticancer Agents” (Marine Drugs, 2022).

Assays:
22Rv1 cells [1] = assay: Cell cycle progression, flow cytometry with PI staining; assay type: cell-based, human; details: treated at IC50 (MTT assay) for 48 h
Method: (§1) The effects on cell cycle progression and DNA fragmentation were analyzed by flow cytometry using PI staining, as described before. Cells (2 × 10^5 cells/well) were pre-incubated overnight in 6-well plates and then treated with the investigated drugs in fresh culture media (2 mL/well) for 48 h. Cells were harvested by trypsinization, fixed in 70% EtOH, stained with PI solution and analyzed by FACS Calibur (BD Bioscience, San Jose, CA, USA). The results were quantified using BD Bioscience Cell Quest Pro v.5.2.1. software (BD Bioscience). The cells appearing as a sub-G1 population (containing fragmented DNA) were considered to be apoptotic.

LNCaP cells = assay: MTT assay, LNCaP cells; assay type: cell-based, human; details: Homo sapiens, LNCaP; prostate cancer cells; 48 h of treatment; mean ± SD
Method: (§2) The human prostate cancer cell lines PC-3, DU145, 22Rv1 and LNCaP, as well as human prostate non-cancer cell line PNT2 were purchased from ATCC (Manassas, VA, USA). HEK 293T (human embryonic kidney cells) and MRC-9 (human fibroblast cells) cell lines were purchased from ECACC (Salisbury, UK). […] Authentication of all cell lines used was recently performed by a commercial service (Multiplexion GmbH, Heidelberg, Germany).
(§3) Cells were cultured as monolayers at 37 °C in a humidified atmosphere with 5% (v/v) CO2 in the correspondent culture medium: 10% FBS/RPMI medium (RPMI medium supplemented with Glutamax^TM-I (gibco® Life technologies^TM, Paisley, UK) containing 10% fetal bovine serum (FBS, gibco® Life technologies^TM) and 1% penicillin/streptomycin (Invitrogen)) for PNT2, LNCaP, 22Rv1, PC-3 and DU145 and cells; 10% FBS/DMEM medium (DMEM medium supplemented with Glutamax^TM-I (gibco® Life technologies^TM) containing 10% FBS and 1% penicillin/streptomycin (gibco® Life technologies^TM)) for MRC-9 and HEK 293 cells. Cells were continuously kept in culture for a maximum of 3 months, and were regularly checked for stable phenotype and mycoplasma infection.
(§4) Effect of the drugs on cell viability in terms of metabolic activity was assessed by MTT assay, as previously reported. Cells were pre-incubated overnight in 96-well plates (6 × 10^3 cells/well in 100 μL/well) in the correspondent culture media. Then, the medium was replaced with fresh 10% FBS/RPMI medium containing the investigated compounds (100 μL/well), and cells were incubated for 48 h, unless otherwise stated. Next, 10 μL/well of (3-(4,5-dimethylthiazol-2-yl)-2,5-diphenyltetrazolium bromide) reagent (MTT, 5 mg/mL) was added. After 2–4 h of incubation, the media was aspirated and the plates were dried. Then, 50 μL/well of DMSO was added to each well and the cell viability was measured using an Infinite F200PRO reader (TECAN, Männedorf, Switzerland). Results were calculated using the GraphPad Prism software v.9.1.1 (GraphPad Software, San Diego, CA, USA) and are represented as IC50 of the compounds calculated using the cells treated with the solvent alone as a control.

HEK-293 cells = assay: MTT assay, HEK-293 cells; assay type: cell-based, human; details: Homo sapiens, HEK293; non-cancer cells; 48 h of treatment; mean ± SD
Method: as §2, §3, §4

PNT2 cells = assay: MTT assay, PNT2 cells; assay type: cell-based, human; details: Homo sapiens, PNT2; non-cancer cells; 48 h of treatment; mean ± SD
Method: as §2, §3, §4

22Rv1 cells [2] = assay: DNA fragmentation (apoptosis, sub-G1), flow cytometry with PI staining; assay type: cell-based, human; details: treated at IC50 (MTT assay) for 48 h, mean ± SD
Method: as §1

PC-3 cells = assay: MTT assay, PC-3 cells; assay type: cell-based, human; details: Homo sapiens, PC-3; prostate cancer cells; 48 h of treatment; mean ± SD
Method: as §2, §3, §4

DU145 cells = assay: MTT assay, DU145 cells; assay type: cell-based, human; details: Homo sapiens, DU-145; prostate cancer cells; 48 h of treatment; mean ± SD
Method: as §2, §3, §4

[3] = test system: prostate cancer cell lines (PC-3, 22Rv1, DU145 and LNCaP); assay: MTT assay, mean over four prostate cancer cell lines; assay type: cell-based; details: Homo sapiens; mean of MTT IC50 in PC-3, 22Rv1, DU145 and LNCaP; from Table S1 values; read-out: mean IC50 in cancer cells
Method: as §4, with “Next, SAR analysis was performed to identify the structural elements that are beneficial for anticancer activity of the fascaplysin-related molecules. Considering the complex and heterogeneous nature of tumors even within the same patient, we used calculated mean IC50 values of each drug in all prostate cancer cells for further analysis (Figure 2A). To identify the drug candidates with the highest therapeutic potential, the selectivity index (SI) was calculated as mean IC50 in non-cancer cells versus mean IC50 in cancer cells (Figure 2B), or as a mean IC50 in non-cancer (MRC-9 and HEK293) cells versus mean IC50 in prostate cells (cancer PC-3, 22Rv1, DU145, LNCaP and non-cancer PNT2 cells) (Figure 2C). Finally, to estimate the effects on cellular metabolism, we compared the activity evaluated by using trypan blue assay versus MTT assay (Figure 2D). Effect” for “Effect”, “2-4” for “2–4”, “F200PRO” left out

MRC-9 cells = assay: MTT assay, MRC-9 cells; assay type: cell-based, human; details: Homo sapiens, MRC9; non-cancer cells; 48 h of treatment; mean ± SD
Method: as §2, §3, §4

22Rv1 cells [4] = assay: MTT assay, 22Rv1 cells; assay type: cell-based, human; details: Homo sapiens, 22Rv1; prostate cancer cells; 48 h of treatment; mean ± SD
Method: as §2, §3, §4

[5] = test system: double-stranded calf thymus DNA; assay: Thiazole orange displacement (DNA intercalation) assay; assay type: binding; details: 1 µM calf thymus DNA base pairs, 2 µM thiazole orange; 7 min at room temperature; mean ± SD
Method: DNA intercalation activity of the compounds was calculated as an ability to displace thiazole orange (TO) from the double-stranded DNA. For this experiment, a mixture (100 µL) containing 1 µM of double-stranded calf thymus DNA (recalculated as a concentration of base pairs) and 2 µM of thiazole orange (TO) solved in water was prepared. Then, the investigated compounds were added up to final concentrations of 0.39–25 µM; DMSO concentration in the samples was <0.02%. Propidium iodide (PI, positive control) was added up to final concentrations of 0.039–2.5 uM. After 7 min of incubation at room temperature, TO fluorescence was monitored using a multimodal plate reader TECAN Spark (Tecan Group Ltd., Männedorf Switzerland) at the excitation λ = 480 nm; fluorescence was recorded at λ = 530 nm. The bandwidth was 10 nm. The concentration of the drug that caused a decrease in TO fluorescence by 50% (EC50) was determined by approximating the experimental data using a non-linear regression algorithm and calculated using the GraphPad Prism software v.9.1.1 (GraphPad Software, San Diego, CA, USA).

[6] = test system: non-cancer cell lines versus cancer cell lines; assay: Selectivity index from MTT IC50s; assay type: cell-based, human; details: for Selectivity index, IC50 (non-prostate) / IC50 (prostate): mean IC50 MRC-9 and HEK-293 versus mean IC50 prostate cancer cell lines plus PNT2; for Selectivity index, IC50 (non-prostate) / IC50 (prostate) / Selectivity index, IC50 (non-cancer) / IC50 (cancer): MTT; for Selectivity index, IC50 (non-cancer) / IC50 (cancer): mean IC50 non-cancer cell lines versus mean IC50 cancer cell lines
Method: as §4, with “Next, SAR analysis was performed to identify the structural elements that are beneficial for anticancer activity of the fascaplysin-related molecules. Considering the complex and heterogeneous nature of tumors even within the same patient, we used calculated mean IC50 values of each drug in all prostate cancer cells for further analysis (Figure 2A). To identify the drug candidates with the highest therapeutic potential, the selectivity index (SI) was calculated as mean IC50 in non-cancer cells versus mean IC50 in cancer cells (Figure 2B), or as a mean IC50 in non-cancer (MRC-9 and HEK293) cells versus mean IC50 in prostate cells (cancer PC-3, 22Rv1, DU145, LNCaP and non-cancer PNT2 cells) (Figure 2C). Finally, to estimate the effects on cellular metabolism, we compared the activity evaluated by using trypan blue assay versus MTT assay (Figure 2D). Effect” for “Effect”, “2-4” for “2–4”, “F200PRO” left out

22Rv1 cells [7] = assay: Trypan blue-based viability assay; assay type: cell-based, human; details: Homo sapiens, 48 h of treatment, mean ± SD, read-out: IC50, trypan blue staining assay
Method: The effect of the drugs on cell viability in terms of cellular membrane integrity was evaluated by the trypan blue exclusion assay as described before. In brief, cells (0.2 × 10^6 cells/well) were seeded in 6-well plates and incubated overnight, and the media was replaced with fresh media (1 mL/well) containing drugs at indicated concentrations. After treatment for 48 h, the cells were harvested by trypsinization, stained with trypan blue and the viability was measured using an automatic Beckman Coulter Vi-CELL (Beckman Coulter, Krefeld, Germany). Trypan blue-positive cells were assumed to have damaged cellular membrane (i.e., dead), whereas trypan blue-negative cells were considered to have an intact cellular membrane (i.e., alive).

TRKA = test system: TRKA; parameters: method as in PMID 28961193; details: cited from earlier work
VEGFR2 = test system: VEGFR2; parameters: method as in PMID 28961193; details: cited from earlier work
VEGFR3 = test system: VEGFR3; parameters: method as in PMID 28961193; details: cited from earlier work
tumor growth = test system: tumor growth; parameters: method as in PMID 28961193, PMID 25561006; details: various in vivo models; cited from earlier work

Cell cycle arrest (at IC50) (22Rv1 cells [1]) | IC50 (LNCaP cells) [nM] | % of sub-G1 apoptotic cells (at IC50) (22Rv1 cells [2]) [%] | IC50 (PC-3 cells) [nM] | IC50 (DU145 cells) [nM] | IC50 [3] [nM] | IC50 (22Rv1 cells [4]) [nM] | EC50 [5] [nM] | IC50 (22Rv1 cells [7]) [nM] | SMILES | IC50 (HEK-293 cells) [nM] | IC50 (PNT2 cells) [nM] | IC50 (MRC-9 cells) [nM] | Selectivity index, IC50 (non-prostate) / IC50 (prostate) [6] | Selectivity index, IC50 (non-cancer) / IC50 (cancer) [6] | concentration inhibiting TRKA (TRKA) | concentration inhibiting VEGFR2 (VEGFR2) | concentration inhibiting VEGFR3 (VEGFR3) | dose at which tumor growth is inhibited (tumor growth) [mg/kg] | Selectivity index (SI), for Figure 2B,C ([6]; both SI definitions (Figure 2B,C))
No | 361 ± 85 | 28.7±3.49 | 1390 ± 700 | 334 ± 34 | 570 | 209 ± 72 | 690 ± 20 | 259 ± 94 | O=C1c2ccc(Br)cc2-[n+]2ccc3c([nH]c4cccc(Br)c43)c21.[Cl-] [Compound 9, 12,13-dihydro-3,8-dibromo-13-oxopyrido[1,2-a:3,4-b’]diindol-5-ium chloride] | 580 ± 99 | 369 ± 24 | 2070 ± 470 | 2.48 | 1.75 |  |  |  |  | 
No | 1410 ± 89 | 32.38±1 | 2780 ± 370 | 2240 ± 180 | 1880 | 1070 ± 94 | > 25000 | 2790 ± 223 | O=C1c2ccccc2-[n+]2ccc3c([nH]c4ccc(Br)cc43)c21.[Cl-] [Compound 6, 12,13-dihydro-9-bromo-13-oxopyrido[1,2-a:3,4-b’]diindol-5-ium chloride] | 2540 ± 1140 | 2450 ± 950 | 15500 ± 2500 | 4.54 | 3.65 |  |  |  |  | 
No | 283 ± 35 | 16.4±2.47 | 429 ± 100 | 444 ± 95 | 330 | 156 ± 32 |  | 207 ± 74 | O=C1c2ccccc2-[n+]2c(-c3ccccc3)cc3c([nH]c4ccccc43)c21.[Cl-] [Compound 20, 12,13-dihydro-6-phenyl-13-oxopyrido[1,2-a:3,4-b’]diindol-5-ium chloride] | 412 ± 66 | 440 ± 75 | 860 ± 111 | 1.82 | 1.74 |  |  |  |  | 
No | 593 ± 91 | 3.83±0.442 | 7280 ± 480 | 1510 ± 56 | 2520 | 690 ± 19 | 4380 ± 60 | 5140 ± 220 | O=C1c2ccc(Br)cc2-[n+]2ccc3c([nH]c4cc(Br)ccc43)c21 [Compound 8, 3,10-dibromofascaplysin] | 540 ± 48 | 3490 ± 1010 | > 50000 |  |  |  |  |  |  | 7–9
No | 2700 ± 173 | 6.95±0.901 | 13200 ± 2870 | 2080 ± 580 | 5230 | 2890 ± 890 |  | 1640 ± 850 | O=C1c2cc(Br)ccc2-[n+]2ccc3c([nH]c4ccc(Cl)cc43)c21.[Cl-] [Compound 12, 12,13-dihydro-2-bromo-9-chloro-13-oxopyrido[1,2-a:3,4-b’]diindol-5-ium chloride] | 750 ± 65 | 3330 ± 806 | 36300 ± 9510 | 3.82 | 2.58 |  |  |  |  | 

SMILES | Cell cycle arrest (at IC50) (22Rv1 cells [1]) | IC50 (LNCaP cells) [nM] | % of sub-G1 apoptotic cells (at IC50) (22Rv1 cells [2]) [%] | IC50 (PC-3 cells) [nM] | IC50 (DU145 cells) [nM] | IC50 [3] [nM] | IC50 (22Rv1 cells [4]) [nM] | EC50 [5] [nM] | IC50 (22Rv1 cells [7]) [nM] | IC50 (HEK-293 cells) [nM] | IC50 (PNT2 cells) [nM] | IC50 (MRC-9 cells) [nM] | Selectivity index, IC50 (non-prostate) / IC50 (prostate) [6] | Selectivity index, IC50 (non-cancer) / IC50 (cancer) [6] | concentration inhibiting TRKA (TRKA) | concentration inhibiting VEGFR2 (VEGFR2) | concentration inhibiting VEGFR3 (VEGFR3) | dose at which tumor growth is inhibited (tumor growth) [mg/kg] | Selectivity index (SI), for Figure 2B,C ([6]; both SI definitions (Figure 2B,C))
O=C1c2ccccc2-[n+]2ccc3c([nH]c4ccccc43)c21 [Compound 1, fascaplysin] | G1-phase arrest |  | 11.43±0.843 |  |  | 550 |  | 530 ± 10 | 335 ± 93 |  |  | 890 ± 46 | 1.26 | 1.09 | lower than 3 µM | lower than 3 µM | lower than 3 µM | 1 to 5 | 
